24 molecules from ChEMBL document CHEMBL3351832, “Design and synthesis of lactam-thiophene carboxylic acids as potent hepatitis C virus polymerase inhibitors” (Bioorg Med Chem Lett, 2014) can be followed below.

Structures are written as SMILES. Some results are limits rather than exact numbers.

A short description of data set [1]: Inhibition of purified Hepatitis C virus NS5B. Details: species or system Hepacivirus hominis.
Data set [2] concerns Hepatitis C virus. Briefly: Antiviral activity against Hepatitis C virus genotype 1b by cell-based replicon assay. Type of data set: functional, Hepacivirus hominis.
Data set [3] deals with T1, Nuclear receptor subfamily 1 group I member 2 (Homo sapiens, UniProt O75469).
T1 sequence (O75469 whole entry): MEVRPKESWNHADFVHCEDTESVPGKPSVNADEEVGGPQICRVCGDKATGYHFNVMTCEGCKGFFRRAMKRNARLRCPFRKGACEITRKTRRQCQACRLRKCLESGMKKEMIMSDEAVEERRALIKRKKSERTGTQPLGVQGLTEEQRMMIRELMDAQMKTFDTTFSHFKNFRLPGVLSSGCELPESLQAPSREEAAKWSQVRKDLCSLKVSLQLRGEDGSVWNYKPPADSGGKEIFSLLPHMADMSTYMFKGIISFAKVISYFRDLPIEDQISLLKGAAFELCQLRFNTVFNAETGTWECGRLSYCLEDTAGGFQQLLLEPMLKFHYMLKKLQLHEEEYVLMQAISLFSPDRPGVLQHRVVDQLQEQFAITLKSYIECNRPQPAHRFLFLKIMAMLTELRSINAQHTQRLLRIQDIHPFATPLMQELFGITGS
Briefly: Activation of PXR (unknown origin) at 10 uM by reporter gene assay relative to rifampicin. Type of data set: ADME.

Data set [4] is described as follows: Volume of distribution at steady state in beagle dog at 0.3 mg/kg, iv. Set-up: dose 0.3 mg/kg, route intravenous. In kind it is ADME, organism-based, Canis lupus familiaris. The settings on record: in vivo, read-out: Vdss.
Data set [5] in a line: Half life in beagle dog at 0.3 mg/kg, iv. Type of data set: ADME, organism-based, Canis lupus familiaris. Set-up: dose 0.3 mg/kg, route intravenous. The settings on record: in vivo.
Data set [6] in a line: AUC in beagle dog at 3 mg/kg, po. In kind it is ADME, organism-based, Canis lupus familiaris. The settings on record: plasma. Details: dose 3 mg/kg, route oral.
A short description of data set [7]: Oral bioavailability in beagle dog at 3 mg/kg. The settings on record: in vivo. In kind it is ADME, organism-based, Canis lupus familiaris.
A further data set has as its target Cytochrome P450 3A4 (Homo sapiens, UniProt P08684). Briefly: Increase in CYP3A4-mediated testosterone metabolism in human hepatocytes at 10 uM relative to rifampicin. In kind it is ADME, cell-based, Hepatocyte.
A short description of data set [8]: AUC in Sprague-Dawley rat at 1 mg/kg, iv. Type of data set: ADME, organism-based. Set-up: dose 1 mg/kg, route intravenous. The settings on record: plasma.
Data set [9] in a line: Clearance in Sprague-Dawley rat at 1 mg/kg, iv. Type of data set: ADME, organism-based. Set-up: dose 1 mg/kg, route intravenous. The settings on record: in vivo.
Data set [10] can be described thus: Volume of distribution at steady state in Sprague-Dawley rat at 1 mg/kg, iv. Type of data set: ADME, organism-based. Details: dose 1 mg/kg, route intravenous. The settings on record: in vivo, read-out: Vdss.
Data set [11] can be described thus: Half life in Sprague-Dawley rat at 1 mg/kg, iv. In kind it is ADME, organism-based. Set-up: dose 1 mg/kg, route intravenous. The settings on record: in vivo.
Data set [12] can be described thus: AUC in Sprague-Dawley rat at 5 mg/kg, po. In kind it is ADME, organism-based. Details: dose 5 mg/kg, route oral. The settings on record: plasma.
The nature of data set [13]: Oral bioavailability in Sprague-Dawley rat at 5 mg/kg. The settings on record: in vivo. Type of data set: ADME, organism-based.
Data set [14] in a line: AUC in beagle dog at 0.3 mg/kg, iv. Type of data set: ADME, organism-based, Canis lupus familiaris. Set-up: dose 0.3 mg/kg, route intravenous. The settings on record: plasma.
Data set [15] in a line: Clearance in beagle dog at 0.3 mg/kg, iv. The settings on record: in vivo. In kind it is ADME, organism-based, Canis lupus familiaris. Details: dose 0.3 mg/kg, route intravenous.
Another data set has as its system Hepatocyte. Briefly: Increase in CYP3A4 mRNA expression in human hepatocytes at 10 uM relative to rifampicin. Type of data set: ADME, cell-based.
Data set [16] relates to Hepatitis C virus. Briefly: Antiviral activity against Hepatitis C virus genotype 1b by cell-based replicon assay in presence of 40 % human serum.
Data set [17] has as its system Hepatitis C virus. The data set is described as follows: Antiviral activity against Hepatitis C virus genotype 1a by cell-based replicon assay. The settings on record: subtype 1a.

Chain of Cytochrome P450 3A4 (P08684 whole entry): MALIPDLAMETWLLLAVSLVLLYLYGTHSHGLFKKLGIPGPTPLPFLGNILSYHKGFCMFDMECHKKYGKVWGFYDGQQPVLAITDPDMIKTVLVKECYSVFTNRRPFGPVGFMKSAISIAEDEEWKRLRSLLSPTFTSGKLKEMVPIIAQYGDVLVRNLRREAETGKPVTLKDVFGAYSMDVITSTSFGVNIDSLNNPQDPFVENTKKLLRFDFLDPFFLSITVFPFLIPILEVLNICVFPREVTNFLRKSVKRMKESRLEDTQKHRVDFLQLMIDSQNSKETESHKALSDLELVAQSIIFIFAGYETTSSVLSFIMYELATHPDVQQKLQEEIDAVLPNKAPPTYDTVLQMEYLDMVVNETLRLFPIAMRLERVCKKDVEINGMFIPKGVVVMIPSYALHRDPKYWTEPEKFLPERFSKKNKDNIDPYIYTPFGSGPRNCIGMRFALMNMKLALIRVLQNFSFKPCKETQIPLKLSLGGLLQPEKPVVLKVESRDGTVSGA

Regarding `CC(C)(C)C#Cc1cc(N2C(=O)[C@@](C)(CCO)OC[C@H]2C2CCCCC2)c(C(=O)O)s1` (relative stereo), the half-inhibitory concentration (IC50) in data set [1] turned out to be 2 nM. The molecule further returned an EC50 in the data set on Hepatitis C virus [2] of 3 nM. The same molecule gave an Activity in data set [3] of 77%.
Regarding `CC(C)(C)C#Cc1cc(N2C(=O)C(C)(C)OC[C@H]2C2CCCCC2)c(C(=O)O)s1`, the IC50 in [1] turned out to be 2 nM. This molecule returned an EC50 with Hepatitis C virus [2] of 5 nM. The molecule also registered an Activity in [3] of 145%.
Take `O=C(O)c1sc(-c2ccccc2)cc1N1C(=O)CCCC1C1CCCCC1` (configuration not stated): it took 73 nM to reach half-maximal inhibition in data set [1] (IC50). The same molecule showed an EC50 in the data set on Hepatitis C virus [2] of 330 nM.
In data set [1], `CC(C)(C)C#Cc1cc(N2C(=O)[C@](C)(CCO)OC[C@H]2C2CCCCC2)c(C(=O)O)s1` (relative stereo) displayed an IC50 of 6 nM. The same molecule showed a concentration for a half-maximal effect (EC50) in the data set on Hepatitis C virus [2] of 20 nM. This molecule came in with an Activity in data set [3] of 29%.
Take `CC(C)(C)C#Cc1cc(N2C(=O)[C@@H](CCO)OC[C@H]2C2CCCCC2)c(C(=O)O)s1` (relative stereo): the results for the Vd in data set [4] and in data set [10] were 0.3 L/kg and 2.1 L/kg, respectively. Moreover, the half-life in data set [5] was 3.8 h; in data set [11] it was 2 h. For the same molecule, the area under the curve (AUC) in data set [6] came to 5.68 µM·h; in [8], 1.42 µM·h; in data set [12], 3.37 µM·h; in [14], 2.08 µM·h. Besides, the bioavailability in data set [7] worked out at 27%; in data set [13], 48%. The same molecule showed an IC50 in [1] of 2 nM. The molecule also displayed an EC50 in the data set with Hepatitis C virus [2] of 7 nM. Also, the Activity is 3% in [3] and 5% on Cytochrome P450 3A4. The figures for the clearance in [9] and in data set [15] were 27 mL/min/kg and 5.6 mL/min/kg, respectively.
In data set [1], `CC(C)(C)C#Cc1cc(N2C(=O)CCC[C@H]2C2CCCCC2)c(C(=O)O)s1` displayed an IC50 of 10 nM. This molecule returned an EC50 with Hepatitis C virus [2] of 12 nM. In data set [3], this molecule registered an Activity of 141%.
As for `O=C(O)c1sc(-c2ccccc2)cc1N1C(=O)CC[C@H]1C1CCCCC1`, in [1], the IC50 was 120 nM. This molecule had an EC50 with Hepatitis C virus [2] of 390 nM.
In the case of `CC(C)N(c1cc(-c2ccccc2)sc1C(=O)O)C(=O)[C@H]1CC[C@H](C)CC1`, 60 nM corresponded to half-maximal inhibition in data set [1] (IC50). In the data set on Hepatitis C virus [2], this molecule yielded an EC50 of 270 nM.
With `Cc1ccc(C2CCCCC2)n1-c1cc(-c2ccccc2)sc1C(=O)O`, 10500 nM corresponded to half-maximal inhibition in [1] (IC50). The same molecule yielded a concentration for a half-maximal effect (EC50) with Hepatitis C virus [2] of over 33000 nM.
Regarding `CC(C)(C)C#Cc1cc(N2C(=O)[C@](C)(CCCO)OC[C@H]2C2CCCCC2)c(C(=O)O)s1` (relative stereo), half-maximal inhibition in data set [1] (IC50) was put at 4 nM. The concentration giving a half-maximal response (EC50) in the data set on Hepatitis C virus [2] turned out to be 25 nM. This molecule also displayed an Activity in data set [3] of 8%.
The molecule `O=C(O)c1sc(-c2ccccc2)cc1N1C(=O)CCCC1C1CCCC1` (configuration not stated) had an IC50 in data set [1] of 720 nM. This molecule also returned an EC50 in the data set with Hepatitis C virus [2] of 3700 nM.
In the same order, the values of `O=C(O)c1sc(-c2ccccc2)cc1N1C(=O)CCCC1C1CCOCC1` (configuration not stated) are over 10000 nM and over 33000 nM.
For `CC(C)(C)C#Cc1cc(N2C(=O)COC[C@H]2C2CCCCC2)c(C(=O)O)s1`, 3 nM corresponded to half-maximal inhibition in data set [1] (IC50). In the data set on Hepatitis C virus [2], this molecule returned an EC50 of 17 nM. For the same molecule, the Activity in data set [3] is given as 87%; on Cytochrome P450 3A4, 61%; in the data set with Hepatocyte, 66%.
`C[C@H](O)C[C@H]1OC[C@@H](C2CCCCC2)N(c2cc(C#CC(C)(C)C)sc2C(=O)O)C1=O`: in data set [1], inhibition was half-maximal at 2 nM (IC50). Moreover, the EC50 in the data set with Hepatitis C virus [2] is 30 nM. Moreover, the Activity in [3] amounted to 4%.
In the case of `CC(C)(C)C#Cc1cc(N2C(=O)[C@@H](CCCO)OC[C@H]2C2CCCCC2)c(C(=O)O)s1` (relative stereo), the figures for the Vd in data set [4] and in [10] were 0.1 L/kg and 1.2 L/kg, respectively. The half-life in [5] was 2.4 h; in data set [11], 1.1 h. In addition, the AUC in data set [6] turned out to be 2.92 µM·h; in [8], 0.984 µM·h; in data set [12], 2.11 µM·h; in data set [14], 2.34 µM·h. The bioavailability is 12% in [7] and 43% in data set [13]. This molecule also yielded an IC50 in data set [1] of 2 nM. This molecule also returned an EC50 in the data set on Hepatitis C virus [2] of 14 nM. Further, the Activity in [3] came to 5%; on Cytochrome P450 3A4, 2%. Besides, the clearance in data set [9] was 38 mL/min/kg; in data set [15], 5.4 mL/min/kg.
In turn, `CC(C)(C)C#Cc1cc(N2C(=O)[C@H](CCO)OC[C@H]2C2CCCCC2)c(C(=O)O)s1` (relative stereo) registered an IC50 in data set [1] of 12 nM. In the data set on Hepatitis C virus [2], this molecule came in with an EC50 of 66 nM.
`O=C(O)c1sc(-c2ccccc2)cc1N1C(=O)CCC1C1CCCCC1` (configuration not stated) showed an IC50 in [1] of 180 nM. In the data set with Hepatitis C virus [2], the EC50 was 640 nM.
As to `C[C@@H](O)C[C@H]1OC[C@@H](C2CCCCC2)N(c2cc(C#CC(C)(C)C)sc2C(=O)O)C1=O`, the figures for the Vd in data set [4] and in data set [10] were 0.7 L/kg and 3 L/kg, respectively. Also, the half-life in [5] is 5 h; in [11] it was 5.2 h. The exposure (AUC) in data set [6] turned out to be 6.3 µM·h; in [8] it was 2.76 µM·h; in data set [12], 10.6 µM·h; in [14], 1.45 µM·h. The bioavailability in data set [7] was found to be 43%; in [13], 77%. The EC50 in the data set on Hepatitis C virus [16] worked out at 44 nM; with Hepatitis C virus [17], 11 nM; in the data set with Hepatitis C virus [2], 8 nM. Besides, half-maximal inhibition in data set [1] (IC50) required 3 nM. For the same molecule, the values for the Activity (in data set [3]; at Cytochrome P450 3A4) were 9% and 2%, respectively. In addition, the clearance was determined as 14 mL/min/kg in data set [9] and 7.7 mL/min/kg in data set [15].
Consider `C[C@H]1CC[C@H](C2CCCC(=O)N2c2cc(-c3ccccc3)sc2C(=O)O)CC1` (some centres not stated), for which, in data set [1], the IC50 amounted to 740 nM. A half-maximal effect in the data set with Hepatitis C virus [2] (EC50) was put at 11600 nM.
`O=C(O)c1sc(-c2ccccc2)cc1N1C(=O)CC[C@@H]1C1CCCCC1` came in with an IC50 in data set [1] of over 10000 nM. This molecule registered an EC50 with Hepatitis C virus [2] of over 33000 nM.
In the same order, the values of `Cc1ccc([C@H]2CC[C@H](C)CC2)n1-c1cc(-c2ccccc2)sc1C(=O)O` are 1500 nM and over 33000 nM.
In the case of `CC(C)(C)C#Cc1cc(N2C(=O)[C@H](CCCO)OC[C@H]2C2CCCCC2)c(C(=O)O)s1`, in data set [1], half-maximal inhibition (IC50) was put at 35 nM. Also, the EC50 in the data set on Hepatitis C virus [2] amounted to 83 nM.
Take `O=C(O)c1sc(-c2ccccc2)cc1N1C(=O)CCCC1c1ccccc1` (configuration not stated): the IC50 in data set [1] amounted to 870 nM. The molecule further returned an EC50 in the data set on Hepatitis C virus [2] of 5800 nM.
Take `CC(C)(C)C#Cc1cc(N2C(=O)[C@@](C)(CCCO)OC[C@H]2C2CCCCC2)c(C(=O)O)s1` (relative stereo): in data set [1], inhibition was half-maximal at 2 nM (IC50). In the data set with Hepatitis C virus [2], the EC50 was 11 nM. This molecule showed an Activity in data set [3] of 34%.
